# Measurements taken from ChEMBL document CHEMBL1146279 (Bioorg Med Chem Lett, 2007).
# Target: T1, Tyrosine-protein kinase JAK3 (Homo sapiens, UniProt P52333)
# T1 sequence (P52333 whole entry): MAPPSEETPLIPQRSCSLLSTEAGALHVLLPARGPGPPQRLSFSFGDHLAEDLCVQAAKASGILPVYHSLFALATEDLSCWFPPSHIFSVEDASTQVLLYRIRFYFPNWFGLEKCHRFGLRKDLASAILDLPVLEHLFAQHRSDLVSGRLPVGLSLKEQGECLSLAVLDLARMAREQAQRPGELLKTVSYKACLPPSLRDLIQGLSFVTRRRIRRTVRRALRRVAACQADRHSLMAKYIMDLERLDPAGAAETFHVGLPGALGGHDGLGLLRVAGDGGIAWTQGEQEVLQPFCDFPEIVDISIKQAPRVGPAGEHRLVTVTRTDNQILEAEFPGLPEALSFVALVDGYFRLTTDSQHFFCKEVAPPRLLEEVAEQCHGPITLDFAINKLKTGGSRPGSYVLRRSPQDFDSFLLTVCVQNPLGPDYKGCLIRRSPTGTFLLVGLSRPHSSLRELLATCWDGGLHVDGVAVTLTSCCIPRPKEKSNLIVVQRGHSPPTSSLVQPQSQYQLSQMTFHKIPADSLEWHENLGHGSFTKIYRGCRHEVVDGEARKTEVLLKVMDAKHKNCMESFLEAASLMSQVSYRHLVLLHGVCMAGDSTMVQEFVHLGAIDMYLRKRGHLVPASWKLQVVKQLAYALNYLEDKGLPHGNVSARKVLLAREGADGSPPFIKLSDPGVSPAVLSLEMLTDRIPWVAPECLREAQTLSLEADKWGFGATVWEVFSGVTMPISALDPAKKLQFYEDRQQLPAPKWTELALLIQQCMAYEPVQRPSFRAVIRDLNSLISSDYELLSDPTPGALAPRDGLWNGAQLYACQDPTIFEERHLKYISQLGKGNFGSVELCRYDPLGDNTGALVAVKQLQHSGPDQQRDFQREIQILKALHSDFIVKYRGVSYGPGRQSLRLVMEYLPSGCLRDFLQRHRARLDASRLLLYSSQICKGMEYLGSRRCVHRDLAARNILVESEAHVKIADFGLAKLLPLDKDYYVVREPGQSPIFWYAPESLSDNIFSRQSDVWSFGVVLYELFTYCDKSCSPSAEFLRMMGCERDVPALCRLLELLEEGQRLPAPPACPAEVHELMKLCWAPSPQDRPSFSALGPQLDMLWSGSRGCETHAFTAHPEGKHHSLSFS
# Experiment: Inhibition of JAK3 expressed in Sf21 cells
row,IC50 [nM],SMILES
1,15,O=Cc1ccc2c(c1)c1c3c(c4c5cc(Br)ccc5n5c4c1n2CC(CO)C5)C(=O)NC3 (stereo not given)
2,14,O=C1NCc2c1c1c3cc(CO)ccc3n3c1c1c2c2cc(CO)ccc2n1CC(CO)C3 (stereo not given)
3,237,CN(C)CCCNC(=O)/C=C/c1ccc2c(c1)c1c3c(c4c5ccccc5n5c4c1n2CC(CO)C5)CNC3=O (stereo not given)
4,142,O=C1NCc2c1c1c3ccccc3n3c1c1c2c2ccccc2n1CC(O)C3 (stereo not given)
5,13.5,O=C1NCc2c1c1c3ccccc3n3c1c1c2c2ccccc2n1CC(CO)(CO)C3
6,36,O=C1NCc2c1c1c3ccccc3n3c1c1c2c2ccccc2n1CC(=C(CO)CO)C3
7,27,O=C1NCc2c1c1c3ccccc3n3c1c1c2c2ccccc2n1CC(O)(CO)C3 (stereo not given)
8,250,CN(C)Cc1ccc2c(c1)c1c3c(c4c5ccccc5n5c4c1n2CC(CO)C5)C(=O)NC3 (stereo not given)
9,354,O=C1NCc2c1c1c3cc(/C=C/c4ccccn4)ccc3n3c1c1c2c2ccccc2n1CC(CO)C3 (stereo not given)
10,11,O=C1NCc2c1c1c3cc(/C=C/Cn4ccnc4)ccc3n3c1c1c2c2ccccc2n1CC(CO)C3 (stereo not given)
11,109,O=C1NCc2c1c1c3cc(/C=C/n4ccnc4)ccc3n3c1c1c2c2ccccc2n1CC(CO)C3 (stereo not given)
12,> 5000,O=C1NCc2c1c1c3cc(CN4CCOCC4)ccc3n3c1c1c2c2cc(CN4CCOCC4)ccc2n1CC(CO)C3 (stereo not given)
13,17.5,O=C1NCc2c1c1c3ccccc3n3c1c1c2c2ccccc2n1CC(CO)C3 (stereo not given)
14,80,CC(C)OCc1ccc2c(c1)c1c3c(c4c5ccccc5n5c4c1n2CC(CO)C5)C(=O)NC3 (stereo not given)
15,23.5,O=C1NCc2c1c1c3cc(Br)ccc3n3c1c1c2c2ccccc2n1CC(CO)C3 (stereo not given)
